In patent publication US10363249B2, “Fatty acid synthase inhibitor for use in the treatment of drug resistant cancer” (3-V Biosciences, Inc., priority 2014, dated 2019):
Several values for one entry are separate records, joined by “and”; a condition that tells them apart may be missing. Equal values may be shown once.

Tests used:
[1] = tested on: BxPC3 AbR (paclitaxel resistant) cells; test: Nab-paclitaxel dose response with fixed FASN inhibitor, CellTiter-Glo viability, BxPC3 AbR; conditions: for 3-Day IC50 Ratio + Compound 5 / 7-Day IC50 Ratio + Compound 5: BxPC3 AbR
Method: (§1) For drug treatment, MIA PaCa-2 or BxPC-3 cells were plated in %-well plates in RPMI medium plus 10% FBS. Parental (paclitaxel sensitive) or AbR (paclitaxel resistant) variants of the MIA PaCa-2 or BxPC-3 cell lines were used. […] Serial dilutions of Nab-paclitaxel were prepared in DMSO and further diluted 1:10 in RPMI medium for addition to the assay solution. RPMI-diluted compounds were added to each well 24-hours after cell plating. Assays were done in triplicate for each drug concentration, with cell viability measured at 3 or 7 days after compound addition. The number of viable cells was measured using the CellTiter-Glo assay (Promega) according to the manufactures instructions. Luminosity per well was determined and the signal intensity was analyzed versus drug concentration. For each FASN inhibitor, the concentration of drug resulting in 50% inhibition of the maximum signal was determined, and this value was reported as the IC50.

[2] = tested on: BxPC3 Parental (paclitaxel sensitive) cells; test: Nab-paclitaxel dose response with fixed FASN inhibitor, CellTiter-Glo viability, BxPC3 Parental
Method: as §1

[3] = tested on: MIA PaCa-2 AbR (paclitaxel resistant) cells; test: Nab-paclitaxel dose response with fixed FASN inhibitor, CellTiter-Glo viability, MIA PaCa-2 AbR; conditions: for 3-Day IC50 Ratio + Compound 5 / 7-Day IC50 Ratio + Compound 5: MIA PaCa-2 AbR
Method: as §1

[4] = tested on: MIA PaCa-2 Parental (paclitaxel sensitive) cells; test: Nab-paclitaxel dose response with fixed FASN inhibitor, CellTiter-Glo viability, MIA PaCa-2 Parental
Method: as §1

3-Day IC50 Ratio + Compound 5 ([1]; + Compound 5 0.2 μM): 1.46
7-Day IC50 Ratio + Compound 5 ([1]; + Compound 5 0.2 μM): 1.29
3-Day IC50 Ratio + Compound 5 ([1]; + Compound 5 2.0 μM): 5.57
7-Day IC50 Ratio + Compound 5 ([1]; + Compound 5 2.0 μM): 3.98
shift of the BxPC-3 Nab-paclitaxel IC50 value ([1]; BxPC-3 paclitaxel resistant (AbR), Compound 5, 3 and 7 days (Table 2)): 4.0 fold and 5.6 fold
3-Day IC50 Ratio + Compound 5 ([3]; + Compound 5 0.2 μM): 1.46
7-Day IC50 Ratio + Compound 5 ([3]; + Compound 5 0.2 μM): 1.04
3-Day IC50 Ratio + Compound 5 ([3]; + Compound 5 2.0 μM): 2.73
7-Day IC50 Ratio + Compound 5 ([3]; + Compound 5 2.0 μM): 3.37
shift of the MIA PaCa-2 Nab-paclitaxel IC50 value ([3]; MIA PaCa-2 paclitaxel resistant (AbR), Compound 5, 3 and 7 days (Table 2)): 2.7 fold and 3.4 fold
Compound: Cc1cc(C)c(-c2[nH]c(C3COC3)nc2C)cc1C(=O)N1CC(c2ccc(C#N)cc2)C1 [Compound 5]
3-Day IC50 Ratio + Compound 5 ([2]; + Compound 5 0.2 μM): 0.92
7-Day IC50 Ratio + Compound 5 ([2]; + Compound 5 0.2 μM): 0.61
3-Day IC50 Ratio + Compound 5 ([2]; + Compound 5 2.0 μM): 0.63
7-Day IC50 Ratio + Compound 5 ([2]; + Compound 5 2.0 μM): 0.63
3-Day IC50 Ratio + Compound 5 ([4]; + Compound 5 0.2 μM): 1.18
7-Day IC50 Ratio + Compound 5 ([4]; + Compound 5 0.2 μM): 1.09
3-Day IC50 Ratio + Compound 5 ([4]; + Compound 5 2.0 μM): 1.59
7-Day IC50 Ratio + Compound 5 ([4]; + Compound 5 2.0 μM): 1.88
